Laboratory results taken from ChEMBL document CHEMBL4619814, “Identification and Development of 1,4-Diaryl-1,2,3-triazolo-Based Ureas as Novel FLT3 Inhibitors” (ACS Med Chem Lett, 2020).

How the values were obtained:
[1] = test system: Receptor-type tyrosine-protein kinase FLT3 (Homo sapiens), P36888 [UNDEFINED MUTATION]; conditions: MV4-11
Description: Inhibition of FLT3 ITD mutant expressed in human MV4-11 cells assessed as reduction in cell growth incubated for 72 hrs by CCK8 assay

[2] = in vitro; conditions: mouse, BaF3 cells
Description: Cytotoxicity against human BAF3 cells assessed as growth inhibition incubated for 72 hrs by CCK8 assay

[3] = test system: Receptor-type tyrosine-protein kinase FLT3 (Homo sapiens), P36888 [UNDEFINED MUTATION]; conditions: BaF3
Description: Inhibition of FLT3 ITD mutant expressed in human BaF3 cells assessed as reduction in cell growth incubated for 72 hrs by CCK8 assay

Chain of Receptor-type tyrosine-protein kinase FLT3 (Homo sapiens), P36888 [UNDEFINED MUTATION] (P36888 whole entry, looked up, change not shown): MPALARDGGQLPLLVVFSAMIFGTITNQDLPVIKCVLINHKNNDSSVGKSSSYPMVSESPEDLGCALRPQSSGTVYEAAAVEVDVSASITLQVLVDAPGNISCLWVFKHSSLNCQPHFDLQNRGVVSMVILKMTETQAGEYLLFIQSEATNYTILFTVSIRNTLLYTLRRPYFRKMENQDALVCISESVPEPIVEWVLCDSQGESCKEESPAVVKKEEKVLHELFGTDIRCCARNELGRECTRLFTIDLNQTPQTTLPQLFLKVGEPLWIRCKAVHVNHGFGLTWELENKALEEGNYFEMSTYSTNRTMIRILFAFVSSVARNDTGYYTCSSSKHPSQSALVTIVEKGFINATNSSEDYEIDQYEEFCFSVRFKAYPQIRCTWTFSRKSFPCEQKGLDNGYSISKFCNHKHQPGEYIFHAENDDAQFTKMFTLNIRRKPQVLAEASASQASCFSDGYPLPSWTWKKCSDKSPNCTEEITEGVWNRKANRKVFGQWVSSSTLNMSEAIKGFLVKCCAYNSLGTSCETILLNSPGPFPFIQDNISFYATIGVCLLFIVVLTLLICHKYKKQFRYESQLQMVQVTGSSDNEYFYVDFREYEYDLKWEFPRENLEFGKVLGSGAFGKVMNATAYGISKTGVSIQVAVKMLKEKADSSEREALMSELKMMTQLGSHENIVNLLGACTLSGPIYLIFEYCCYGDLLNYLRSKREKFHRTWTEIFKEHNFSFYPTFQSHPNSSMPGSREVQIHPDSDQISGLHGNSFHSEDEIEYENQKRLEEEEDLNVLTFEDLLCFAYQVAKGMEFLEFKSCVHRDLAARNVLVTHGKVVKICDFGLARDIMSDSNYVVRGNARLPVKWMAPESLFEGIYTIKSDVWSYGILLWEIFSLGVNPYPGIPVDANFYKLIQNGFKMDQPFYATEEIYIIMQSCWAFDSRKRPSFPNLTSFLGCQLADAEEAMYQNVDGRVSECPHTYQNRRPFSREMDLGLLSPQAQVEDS

Row | GI50 [1] | GI50 at 72 h [2] | GI50 [3] | Structure (SMILES)
1 | 4.8 nM | > 3000 nM |  | COc1cc(-n2cc(-c3ccc(NC(=O)Nc4cc(C(C)(C)C)on4)cc3)nn2)ccc1OCCN1CCOCC1
2 | 106 nM | 1520 nM | 48.5 nM | CC(C)(C)c1cc(NC(=O)Nc2ccc(-c3cn(-c4ccc(OCCN5CCOCC5)c(C(F)(F)F)c4)nn3)cc2)no1
3 | 4 nM | > 3000 nM |  | CC(C)(C)c1cc(NC(=O)Nc2ccc(-c3cn(-c4ccc(OCCN5CCOCC5)cc4)nn3)cc2)no1
4 | 21.5 nM | 1380 nM | 2.8 nM | CC(C)(C)c1cc(NC(=O)Nc2ccc(-c3cn(-c4ccc(OCCN5CCOCC5)c(Cl)c4)nn3)cc2)no1
5 | 39.2 nM | > 3000 nM | 55.4 nM | CC(C)(C)c1cc(NC(=O)Nc2ccc(-c3cn(-c4ccc(OCCN5CCOCC5)c([N+](=O)[O-])c4)nn3)cc2)no1
6 | 7.1 nM | 1970 nM | 1 nM | Cc1cc(-n2cc(-c3ccc(NC(=O)Nc4cc(C(C)(C)C)on4)cc3)nn2)ccc1OCCN1CCOCC1

The remaining lines, values behind:

Row | Structure (SMILES) | GI50 [1] | GI50 at 72 h [2] | GI50 [3]
7 | CC(C)(C)c1cc(NC(=O)Nc2ccc(-c3cn(-c4ccc(OCCN5CCOCC5)cc4)nn3)c(F)c2)no1 | 10.3 nM | > 3000 nM | 1.5 nM
8 | CC(C)(C)c1cc(NC(=O)Nc2ccc(-c3cn(-c4ccc(OCCN5CCCC5)cc4Cl)nn3)cc2)no1 | 5 nM | 2040 nM | 
9 | COc1cc(-c2cn(-c3ccc(OCCN4CCOCC4)cc3)nn2)ccc1NC(=O)Nc1cc(C(C)(C)C)on1 | 1220 nM | 1510 nM | 851 nM
10 | CC(C)(C)c1cc(NC(=O)Nc2ccc(-c3cn(-c4ccc(OCCN5CCOCC5)cc4Br)nn3)cc2)no1 | 5.7 nM | 2020 nM | 2.3 nM
11 | CN(C)CCOc1ccc(-n2cc(-c3ccc(NC(=O)Nc4cc(C(C)(C)C)on4)cc3)nn2)c(Cl)c1 | 4 nM | > 3000 nM | 
12 | CC(C)(C)c1cc(NC(=O)Nc2ccc(-c3cn(-c4ccc(OCCN5CCOCC5)cc4)nn3)cc2F)no1 | 19.6 nM | > 3000 nM | 4.2 nM
13 | CC(C)(C)c1cc(NC(=O)Nc2ccc(-c3cn(-c4ccc(OCCN5CCOCC5)cc4C(F)(F)F)nn3)cc2)no1 | 58.6 nM | > 3000 nM | 40.5 nM
14 | Cc1cc(-c2cn(-c3ccc(OCCN4CCOCC4)cc3)nn2)ccc1NC(=O)Nc1cc(C(C)(C)C)on1 | 344 nM | 2160 nM | 61.5 nM
15 | CC(C)(C)c1cc(NC(=O)Nc2ccc(-c3cn(-c4ccc(OCCN5CCCCC5)cc4Cl)nn3)cc2)no1 | 5.6 nM | 1960 nM | 
16 | CC(C)(C)c1cc(NC(=O)Nc2ccc(-c3cn(-c4ccc(OCCCN5CCOCC5)cc4Cl)nn3)cc2)no1 | 6.2 nM | > 3000 nM | 1.5 nM
17 | CC(C)(C)c1cc(NC(=O)Nc2ccc(-c3cn(-c4ccc(OCCN5CCOCC5)cc4)nn3)cc2Cl)no1 | 498 nM | > 3000 nM | 165 nM
18 | CC(C)(C)c1cc(NC(=O)Nc2ccc(-c3cn(-c4ccc(OCCN5CCOCC5)cc4F)nn3)cc2)no1 | 5.1 nM | > 3000 nM | 
19 | CC(C)(C)c1cc(NC(=O)Nc2ccc(-c3cn(-c4ccc(OCCN5CCOCC5)cc4)nn3)c(Cl)c2)no1 | 12 nM | > 3000 nM | 3 nM
